Assay results reported in PubChem BioAssay AID1963849 (Molecular Pharmacology Branch, DTP, NCI, 2024).

System: 299254-011-R-J1-PDC complex spheroid viability
Test: Anticancer human tumor 299254-011-R-J1-PDC patient-derived melanoma cell line growth inhibition [POLQ]
Details: for IC50: curve of first compound; for viability, T/C: stronger effect = lower value
Method in brief: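 Patient-derived tumour cells were co-cultured with HUVEC and mesenchymal stem cells as multicellular spheroids at 37 °C. They were treated with POLQ inhibitors (novobiocin, ART-558, RP6685) alone or combined with other agents. Top concentrations were at or near clinical Cmax (otherwise 10 microM; SN-38 at 1 microM), decreasing in half-log steps.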

[1] = second compound 0.0316 µM, first compound 0.000316 µM
[2] = second compound 0.0316 µM, first compound 0.001 µM
[3] = second compound 0.0316 µM, first compound 0.00316 µM
[4] = second compound 0.0316 µM, first compound 0.01 µM
[5] = second compound 0.0316 µM, first compound 0.0316 µM
[6] = second compound 0.0316 µM, first compound 0.1 µM
[7] = second compound 0.1 µM, first compound 0.000316 µM
[8] = second compound 0.1 µM, first compound 0.001 µM
[9] = second compound 0.1 µM, first compound 0.00316 µM
[10] = second compound 0.1 µM, first compound 0.01 µM
[11] = second compound 0.1 µM, first compound 0.0316 µM
[12] = second compound 0.1 µM, first compound 0.1 µM
[13] = second compound 0.316 µM, first compound 0.000316 µM
[14] = second compound 0.316 µM, first compound 0.001 µM
[15] = second compound 0.316 µM, first compound 0.00316 µM
[16] = second compound 0.316 µM, first compound 0.01 µM
[17] = second compound 0.316 µM, first compound 0.0316 µM
[18] = second compound 0.316 µM, first compound 0.1 µM
[19] = second compound 1 µM, first compound 0.000316 µM
[20] = second compound 1 µM, first compound 0.001 µM
[21] = second compound 1 µM, first compound 0.00316 µM
[22] = second compound 1 µM, first compound 0.01 µM
[23] = second compound 1 µM, first compound 0.0316 µM
[24] = second compound 1 µM, first compound 0.1 µM
[25] = second compound 3.16 µM, first compound 0.000316 µM
[26] = second compound 3.16 µM, first compound 0.001 µM
[27] = second compound 3.16 µM, first compound 0.00316 µM
[28] = second compound 3.16 µM, first compound 0.01 µM
[29] = second compound 3.16 µM, first compound 0.0316 µM
[30] = second compound 3.16 µM, first compound 0.1 µM
[31] = second compound 10 µM, first compound 0.000316 µM
[32] = second compound 10 µM, first compound 0.001 µM
[33] = second compound 10 µM, first compound 0.00316 µM
[34] = second compound 10 µM, first compound 0.01 µM
[35] = second compound 10 µM, first compound 0.0316 µM
[36] = second compound 10 µM, first compound 0.1 µM
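Note: spheroids exposed to drugs for one week before measurement.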
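Throughout, for viability, T/C: percent viability relative to DMSO vehicle control taken as 100%.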

Cn1ncnc1[C@H]1c2n[nH]c(=O)c3cc(F)cc(c23)N[C@@H]1c1ccc(F)cc1 + COC1C(OC(N)=O)C(O)C(Oc2ccc3c(O)c(NC(=O)c4ccc(O)c(CC=C(C)C)c4)c(=O)oc3c2C)OC1(C)C
IC50 (second compound 0.0316 µM): > 100 nM | IC50 (second compound 0.1 µM): > 100 nM | IC50 (second compound 0.316 µM): > 100 nM | IC50 (second compound 1 µM): > 100 nM | IC50 (second compound 3.16 µM): > 100 nM | IC50 (second compound 10 µM): > 100 nM | viability, T/C [1]: 106% | viability, T/C [2]: 84.4% | viability, T/C [3]: 101% | viability, T/C [4]: 98.8% | viability, T/C [5]: 97% | viability, T/C [6]: 98.1% | viability, T/C [7]: 101% | viability, T/C [8]: 91.3% | viability, T/C [9]: 105% | viability, T/C [10]: 90.9% | viability, T/C [11]: 106% | viability, T/C [12]: 87.6% | viability, T/C [13]: 89.4% | viability, T/C [14]: 94.6% | viability, T/C [15]: 101% | viability, T/C [16]: 92% | viability, T/C [17]: 107% | viability, T/C [18]: 96.2% | viability, T/C [19]: 105% | viability, T/C [20]: 111% | viability, T/C [21]: 102% | viability, T/C [22]: 118% | viability, T/C [23]: 96.5% | viability, T/C [24]: 97.4% | viability, T/C [25]: 99.7% | viability, T/C [26]: 103% | viability, T/C [27]: 98.9% | viability, T/C [28]: 93.2% | viability, T/C [29]: 103% | viability, T/C [30]: 100% | viability, T/C [31]: 106% | viability, T/C [32]: 105% | viability, T/C [33]: 115% | viability, T/C [34]: 112% | viability, T/C [35]: 119% | viability, T/C [36]: 99.6%

CC[C@@]1(O)C(=O)OCc2c1cc1n(c2=O)Cc2cc3c(CN(C)C)c(O)ccc3nc2-1 + Cc1cccc(N(C)C(=O)C2C(O)CCN2c2nc(C)cc(C(F)(F)F)c2C#N)c1
IC50 (second compound 0.0316 µM): > 100 nM | IC50 (second compound 0.1 µM): > 100 nM | IC50 (second compound 0.316 µM): > 100 nM | IC50 (second compound 1 µM): > 100 nM | IC50 (second compound 3.16 µM): > 100 nM | IC50 (second compound 10 µM): > 100 nM | viability, T/C [1]: 101% | viability, T/C [2]: 100% | viability, T/C [3]: 95.6% | viability, T/C [4]: 104% | viability, T/C [5]: 117% | viability, T/C [6]: 81% | viability, T/C [7]: 104% | viability, T/C [8]: 98.6% | viability, T/C [9]: 97% | viability, T/C [10]: 113% | viability, T/C [11]: 113% | viability, T/C [12]: 84.1% | viability, T/C [13]: 110% | viability, T/C [14]: 115% | viability, T/C [15]: 103% | viability, T/C [16]: 120% | viability, T/C [17]: 116% | viability, T/C [18]: 80.9% | viability, T/C [19]: 111% | viability, T/C [20]: 112% | viability, T/C [21]: 100% | viability, T/C [22]: 123% | viability, T/C [23]: 99.2% | viability, T/C [24]: 90.5% | viability, T/C [25]: 108% | viability, T/C [26]: 115% | viability, T/C [27]: 89.1% | viability, T/C [28]: 106% | viability, T/C [29]: 119% | viability, T/C [30]: 89.6% | viability, T/C [31]: 94.9% | viability, T/C [32]: 102% | viability, T/C [33]: 90.8% | viability, T/C [34]: 97% | viability, T/C [35]: 95.3% | viability, T/C [36]: 69.7%
